Measurements reported in PMC10590383, “Repurposing conformational changes in ANL superfamily enzymes to rapidly generate biosensors for organic and amino acids” (Nature Communications, 2023).

Assays:
[1] = Substrate (ligand) specificity of […]s; format: biochemical; settings: for fluorescence response of GECFINDER to each substrate, AVE of 3 repeats: Supplementary Fig. 3 c, substrate specificity; for AVE of Repeat 1-3, sensor signal with ligand (Supplementary Fig. 7 c): 1 mM ligand, Control AVE 12117.3
Protocol: Fig. 4 Engineering ligand specificity of GrsA-PheA for generating […]s. a The selectivity-conferring code of Phe and Leu A domains. b–f Dose–response curve of purified […]s with increasing concentrations of ligands in 100 mM Tris-HCl buffer (pH=7.5). All data shown are means ± S.D. (n = 3 biologically independent samples). g A series of […] reactions was tested to show the […]’s specificity with 20 proteinogenic amino acids. The values on the heatmap represent the ΔF/F0 value normalized to each […]’s maximal ΔF/F0 value ((ΔF/F0)/maximal ΔF/F0). The concentrations of 20 amino acids were 100 μM. The color indicates the average value of three independent biological replicates after 15 min. All data shown are means ± S.D. (n = 3 biologically independent samples). Source data are provided as a Source data file.
Ligand specificity is an important biosensors feature. Generally, the NRPS A domains have high specificity for their substrates because they are the first “gatekeeper” of NRPSs and ensure that the correct monomers are activated and thioesterified[32],[33]. Therefore, we speculated that this property would be inherited by our […]s because the ligand-binding pockets were unchanged during the […] creation process. Twenty proteinogenic amino acids were used to test the ligand specificity of […]s. […] We also investigated the dependence of […]s on Mg^2+ and ATP (Supplementary Fig. 4). […] This phenomenon corroborates with the distinct conformational changes observed in Hinge A of Nt4CL2 (Mg^2++ATP) (PDB ID: 5BSM) and Nt4CL2 (Coumaroyl-AMP) (PDB ID: 5BST) reported in the literature (Supplementary Fig. 4k), where the direction of motion in hinge A differs. […] During the determination of quantum yield, we observed that the absolute quantum yield of the […] variants ranged from 0.3 to 0.6 upon addition of the respective substrates, which show no significant difference with that reported in literature. The specific values are provided in Supplementary Table 2.
The study conducted dose–response curve, substrate specificity, and fluorescent spectrum analyses in 100-mM Tris buffer (pH = 7.5), while pH stability experiments were performed in 100-mM Tris buffer at three different pH values (6.5, 7.5, and 8.5) at room temperature. […] protein at a concentration of 0.75 μM, various small molecule concentrations, 1 mM ATP, and 2.5 mM MgCl2 were used in the experiments. Fluorescent signals were detected using a Microplate Reader (Synergy H4, Bio Tek) at an excitation/emission wavelength of 460 nm/510 nm or 480 nm/510 nm. The dose-response curve was determined immediately after the addition of the analyte. The total duration of the measurement was 15 min, with readings taken at one-minute intervals. The dose-response curve was plotted using the fluorescence values obtained after achieving stability in the fluorescence signal. The dose-response curves were fitted using the logistic model LOGISTIC5 available in Origin 2021, which could provide a more adequate fit to asymmetric dose-response data[62],[63]. Excitation spectra were scanned from 300 to 540 nm with a step size of 5 nm, and the emission wavelength was set to 560 nm. Emission spectra were scanned from 470 to 700 nm with a step size of 5 nm, and the excitation wavelength was set to 450 nm. The thermal stability of […] was analyzed using the UNcle multifunctional protein stability analysis system. Measurements were performed in 20 mM MOPS buffer with 2 mM DTT at a sample concentration of 1 mg/mL. Absolute fluorescence quantum yields were measured using an absolute photoluminescence quantum yield spectrometer (FS5, Edinburgh).

[2] = Dependence of […]s on Mg2+ and ATP (fluorescence intensity); format: biochemical; settings: Mg+ +
Description: Ligand specificity is an important biosensors feature. Generally, the NRPS A domains have high specificity for their substrates because they are the first “gatekeeper” of NRPSs and ensure that the correct monomers are activated and thioesterified[32],[33]. […] Twenty proteinogenic amino acids were used to test the ligand specificity of […]s. […] We also investigated the dependence of […]s on Mg^2+ and ATP (Supplementary Fig. 4).
Supplementary Fig. 4 Dependence of GEC FINDER s on Mg2+ and ATP . a-j, Fluore scence intensities of
GECF IN DERs in the absence of any substra te, in the pre sence of Mg2+ alone, ATP alone, both Mg2+ and ATP, Mg2+
and ATP with re spective substra tes. Mg2+ concentra tion was 2.5 mM, and ATP concentra tion was 1 mM. a, 100 μM
data are provided as a Source Data file.

Structure (SMILES): NCC(=O)O [Gly]
- fluorescence response of GECFINDER to each substrate, AVE of 3 repeats [1]: 0.007359

Structure (SMILES): N[C@@H](Cc1ccccc1)C(=O)O [phenylalanine]
- fluorescence intensity, AVE of 3 repeats ([2]; Supplementary Fig. 4 b, ATP +, phenylalanine +): 39284.7
- fluorescence intensity, AVE of 3 repeats ([2]; Supplementary Fig. 4 j, ATP +, phenylalanine +): 31788

Structure (SMILES): N=C(N)NCCC[C@H](N)C(=O)O [Arg]
- fluorescence response of GECFINDER to each substrate, AVE of 3 repeats [1]: 0.01953

Structure (SMILES): N[C@@H](CC(=O)O)C(=O)O [Asp]
- fluorescence response of GECFINDER to each substrate, AVE of 3 repeats [1]: 0.02069

Structure (SMILES): N[C@@H](Cc1c[nH]c2ccccc12)C(=O)O [Trp]
- AVE of Repeat 1-3, sensor signal with ligand (Supplementary Fig. 7 c) [1]: 11938.7
- fluorescence response of GECFINDER to each substrate, AVE of 3 repeats [1]: -0.01712

Structure (SMILES): C[C@H](N)C(=O)O [Ala]
- fluorescence response of GECFINDER to each substrate, AVE of 3 repeats [1]: 0.02842

Structure (SMILES): CSCC[C@H](N)C(=O)O [Met]
- AVE of Repeat 1-3, sensor signal with ligand (Supplementary Fig. 7 c) [1]: 12345.3
- fluorescence response of GECFINDER to each substrate, AVE of 3 repeats [1]: 0.1232

Structure (SMILES): CC(C)[C@H](N)C(=O)O [Val]
- fluorescence response of GECFINDER to each substrate, AVE of 3 repeats [1]: -0.02124

Structure (SMILES): N[C@@H](Cc1ccc(O)cc1)C(=O)O [tyrosine]
- fluorescence intensity, AVE of 3 repeats ([2]; Supplementary Fig. 4 i, ATP +, tyrosine +): 9237.33

Structure (SMILES): N[C@@H](Cc1c[nH]cn1)C(=O)O [histidine]
- fluorescence intensity, AVE of 3 repeats ([2]; Supplementary Fig. 4 f, ATP +, histidine +): 33756

Structure (SMILES): N[C@@H](CS)C(=O)O [Cys]
- fluorescence response of GECFINDER to each substrate, AVE of 3 repeats [1]: -0.0008412

Structure (SMILES): NCCCC[C@H](N)C(=O)O [Lys]
- fluorescence response of GECFINDER to each substrate, AVE of 3 repeats [1]: -0.005837

Structure (SMILES): [Mg+2] [Mg+]
- fluorescence intensity, AVE of 3 repeats ([2]; Supplementary Fig. 4 a, ATP -, 4-coumaric acid -): 2849
- fluorescence intensity, AVE of 3 repeats ([2]; Supplementary Fig. 4 b, ATP -, phenylalanine -): 6591
- fluorescence intensity, AVE of 3 repeats ([2]; Supplementary Fig. 4 c, ATP -, glutamine -): 17660
- fluorescence intensity, AVE of 3 repeats ([2]; Supplementary Fig. 4 e, ATP -, isoleucine -): 12580
- fluorescence intensity, AVE of 3 repeats ([2]; Supplementary Fig. 4 f, ATP -, histidine -): 26018
- fluorescence intensity, AVE of 3 repeats ([2]; Supplementary Fig. 4 g, ATP -, leucine -): 6350.33
- fluorescence intensity, AVE of 3 repeats ([2]; Supplementary Fig. 4 i, ATP -, tyrosine -): 5977
- fluorescence intensity, AVE of 3 repeats ([2]; Supplementary Fig. 4 j, ATP -, phenylalanine -): 7671.67
- fluorescence intensity, AVE of 3 repeats ([2]; Supplementary Fig. 4 h, ATP -, S-β-phenylalanine -): 5046.33
- fluorescence intensity, AVE of 3 repeats ([2]; Supplementary Fig. 4 d, ATP -, proline -): 43559.3

Structure (SMILES): NC(=O)C[C@H](N)C(=O)O [Asn]
- fluorescence response of GECFINDER to each substrate, AVE of 3 repeats [1]: 0.01237

Structure (SMILES): CC[C@H](C)[C@H](N)C(=O)O [isoleucine]
- fluorescence intensity, AVE of 3 repeats ([2]; Supplementary Fig. 4 e, ATP +, isoleucine +): 15546

Structure (SMILES): N[C@@H](CC(=O)O)c1ccccc1 [S-β-phenylalanine]
- fluorescence intensity, AVE of 3 repeats ([2]; Supplementary Fig. 4 h, ATP +, S-β-phenylalanine +): 22066

Structure (SMILES): NC(=O)CC[C@H](N)C(=O)O [Gln]
- fluorescence response of GECFINDER to each substrate, AVE of 3 repeats [1]: 0.009843

Structure (SMILES): C[C@@H](O)[C@H](N)C(=O)O [Thr]
- fluorescence response of GECFINDER to each substrate, AVE of 3 repeats [1]: -0.00888

Structure (SMILES): O=C(O)[C@@H]1CCCN1 [proline]
- fluorescence intensity, AVE of 3 repeats ([2]; Supplementary Fig. 4 d, ATP +, proline +): 54621.3

Structure (SMILES): N[C@@H](CO)C(=O)O [Ser]
- fluorescence response of GECFINDER to each substrate, AVE of 3 repeats [1]: -0.004319
